Like-named read-outs stand apart in the source and are kept apart here.
Key:
[1] = log D at pH 7.4 by an HPLC method; assay type: physicochemical
Bcl-2 protein = Bcl-2 protein (Homo sapiens (Human), UniProt P10415); assay: TR-FRET (Time-Resolved Fluorescence-Resonance-Energy-Transfer) Bcl-2 binding assay
Description: The smaller the Ki value, the greater is the binding affinity.

[2] = First-in-human Phase 1 study (safety, PK) in relapsed or refractory CLL; assay type: in vivo; conditions: for AUC(0-inf): read-out: AUC (AUCINF)
Method: Three subjects were enrolled in the first cohort of CLL arm.
Subject 1: bulky disease, initial dose=200 mg
Subject 2: non-bulky disease, initial dose=200 mg
Subject 3: bulky disease, initial dose=100 mg
The dosing scheme for CLL arm was as follows: single dose on Week 1 Day −3; QD dose started on Week 1 Day 1. PK sampling was done on Week 1 Day −3 and Week 3 Day 1.

[3] = human CLL, Week 1 Day-3 single dose, Mean of 3 subjects
[4] = human CLL, Week 1 Day-3 single dose, Subject 1, 200 mg
[5] = human CLL, Week 1 Day-3 single dose, Subject 2, 200 mg
[6] = human CLL, Week 1 Day-3 single dose, Subject 3, 100 mg
[7] = human CLL, Week 3 Day 1, QD dosing, ID 101, 150 mg
[8] = human, plasma, oral, 100 mg, human CLL, Week 1 Day-3 single dose, Subject 3, 100 mg
[9] = human, plasma, oral, 200 mg, human CLL, Week 1 Day-3 single dose, Subject 1, 200 mg
[10] = human, plasma, oral, 200 mg, human CLL, Week 1 Day-3 single dose, Subject 2, 200 mg

Bcl-2 protein, sequence (P10415 whole entry): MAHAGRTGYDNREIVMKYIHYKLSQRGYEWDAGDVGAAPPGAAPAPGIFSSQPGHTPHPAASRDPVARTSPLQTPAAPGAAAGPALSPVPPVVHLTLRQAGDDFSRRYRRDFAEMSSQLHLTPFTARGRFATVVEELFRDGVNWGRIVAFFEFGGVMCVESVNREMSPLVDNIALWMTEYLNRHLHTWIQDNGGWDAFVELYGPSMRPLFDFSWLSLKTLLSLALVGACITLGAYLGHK

For `CC1(C)CCC(CN2CCN(c3ccc(C(=O)NS(=O)(=O)c4ccc(NCC5CCC(C)(O)CC5)c([N+](=O)[O-])c4)c(Oc4cnc5[nH]ccc5c4)c3)CC2)=C(c2ccc(Cl)cc2)C1` (stereo not drawn) [Compound 338, 4-(4-{[2-(4-chlorophenyl)-4,4-dimethylcyclohex-1-en-1-yl]methyl}piperazin-1-yl)-N-[(4-{[(cis-4-hydroxy-4-methylcyclohexyl)methyl]amino}-3-nitrophenyl)sulfonyl]-2-(1H-pyrrolo[2,3-b]pyridin-5-yloxy)benzamide], the “log D” value [1] was 5.67.
For `CC1(O)CCC(COc2ncc(S(=O)(=O)NC(=O)c3ccc(N4CCN(CC5=C(c6ccc(Cl)cc6)CC6(CC5)CC6)CC4)cc3Oc3cnc4[nH]ccc4c3)cc2Cl)CC1` (stereo not drawn) [Compound 341, N-({5-chloro-6-[(trans-4-hydroxy-4-methylcyclohexyl)methoxy]pyridin-3-yl}sulfonyl)-4-(4-{[5-(4-chlorophenyl)spiro[2.5]oct-5-en-6-yl]methyl}piperazin-1-yl)-2-(1H-pyrrolo[2,3-b]pyridin-5-yloxy)benzamide], the Ki (Bcl-2 protein) was less than 0.01 nM.
For `CC1(C)CCC(CN2CCN(c3ccc(C(=O)NS(=O)(=O)c4ccc(NCC5CCC(C)(O)CC5)c([N+](=O)[O-])c4)c(Oc4cnc5[nH]ccc5c4)c3)CC2)=C(c2ccc(Cl)cc2)C1` (stereo not drawn) [Compound 337, 4-(4-{[2-(4-chlorophenyl)-4,4-dimethylcyclohex-1-en-1-yl]methyl}piperazin-1-yl)-N-[(4-{[(trans-4-hydroxy-4-methylcyclohexyl)methyl]amino}-3-nitrophenyl)sulfonyl]-2-(1H-pyrrolo[2,3-b]pyridin-5-yloxy)benzamide], the “log D” value [1] was 5.48.
Work on `CC1(C)CCC(CN2CCN(c3ccc(C(=O)NS(=O)(=O)c4cnc(OCC5(F)CCC(O)CC5)c(Cl)c4)c(Oc4cnc5[nH]ccc5c4)c3)CC2)=C(c2ccc(Cl)cc2)C1` (stereo not drawn) [Compound 350, N-({5-chloro-6-[(cis-1-fluoro-4-hydroxycyclohexyl)methoxy]pyridin-3-yl}sulfonyl)-4-(4-{[2-(4-chlorophenyl)-4,4-dimethylcyclohex-1-en-1-yl]methyl}piperazin-1-yl)-2-(1H-pyrrolo[2,3-b]pyridin-5-yloxy)benzamide] yielded a Ki (Bcl-2 protein) of less than 0.01 nM.
Work on `CC1(C)CCC(CN2CCN(c3ccc(C(=O)NS(=O)(=O)c4cnc(NCC5CCC(C)(O)CC5)c([N+](=O)[O-])c4)c(Oc4cnc5[nH]ccc5c4)c3)CC2)=C(c2ccc(Cl)cc2)C1` (stereo not drawn) [Compound 371, 4-(4-{[2-(4-chlorophenyl)-4,4-dimethylcyclohex-1-en-1-yl]methyl}piperazin-1-yl)-N-[(6-{[(trans-4-hydroxy-4-methylcyclohexyl)methyl]amino}-5-nitropyridin-3-yl)sulfonyl]-2-(1H-pyrrolo[2,3-b]pyridin-5-yloxy)benzamide] yielded a Ki (Bcl-2 protein) of less than 0.001 nM.
In the case of `CC1(C)CCC(CN2CCN(c3ccc(C(=O)NS(=O)(=O)c4ccc(OCC5CCC(C)(O)CC5)c(Cl)c4)c(Oc4cnc5[nH]ccc5c4)c3)CC2)=C(c2ccc(Cl)cc2)C1` (stereo not drawn) [Compound 362, N-({3-chloro-4-[(trans-4-hydroxy-4-methylcyclohexyl)methoxy]phenyl}sulfonyl)-4-(4-{[2-(4-chlorophenyl)-4,4-dimethylcyclohex-1-en-1-yl]methyl}piperazin-1-yl)-2-(1H-pyrrolo[2,3-b]pyridin-5-yloxy)benzamide], the Ki (Bcl-2 protein) is reported as 0.016 nM.
`COC1(C)CCC(c2ccc(Cl)cc2)=C(CN2CCN(c3ccc(C(=O)NS(=O)(=O)c4ccc(NCC5CCC(C)(O)CC5)c([N+](=O)[O-])c4)c(Oc4cnc5[nH]ccc5c4)c3)CC2)C1` (stereo not drawn) [Compound 377, 4-(4-{[2-(4-chlorophenyl)-5-methoxy-5-methylcyclohex-1-en-1-yl]methyl}piperazin-1-yl)-N-[(4-{[(trans-4-hydroxy-4-methylcyclohexyl)methyl]amino}-3-nitrophenyl)sulfonyl]-2-(1H-pyrrolo[2,3-b]pyridin-5-yloxy)benzamide] gave a Ki (Bcl-2 protein) of less than 0.001 nM.
In the case of `CC1(C)CCC(CN2CCN(c3ccc(C(=O)NS(=O)(=O)c4cnc(NCC5CCC(C)(O)CC5)c([N+](=O)[O-])c4)c(Oc4cnc5[nH]ccc5c4)c3)CC2)=C(c2ccc(Cl)cc2)C1` (stereo not drawn) [Compound 376, 4-(4-{[2-(4-chlorophenyl)-4,4-dimethylcyclohex-1-en-1-yl]methyl}piperazin-1-yl)-N-[(6-{[(cis-4-hydroxy-4-methylcyclohexyl)methyl]amino}-5-nitropyridin-3-yl)sulfonyl]-2-(1H-pyrrolo[2,3-b]pyridin-5-yloxy)benzamide], the Ki (Bcl-2 protein) is reported as less than 0.001 nM.
With `COCCON1C=C(Cl)C=C(S(=O)(=O)NC(=O)c2ccc(N3CCN(CC4=C(c5ccc(Cl)cc5)CC(C)(C)CC4)CC3)cc2Oc2cnc3[nH]ccc3c2)C1` [Compound 292, N-{[5-chloro-1-(2-methoxyethoxy)pyridin-3-yl]sulfonyl}-4-(4-{[2-(4-chlorophenyl)-4,4-dimethylcyclohex-1-en-1-yl]methyl}piperazin-1-yl)-2-(1H-pyrrolo[2,3-b]pyridin-5-yloxy)benzamide] the Ki (Bcl-2 protein) was 0.19 nM.
In the case of `CC1(C)CCC(CN2CCN(c3ccc(C(=O)NS(=O)(=O)c4ccc(NCC5CCOCC5)c([N+](=O)[O-])c4)c(Oc4cnc5[nH]ccc5c4)c3)CC2)=C(c2ccc(Cl)cc2)C1` [Compound 5, 4-(4-{[2-(4-chlorophenyl)-4,4-dimethylcyclohex-1-en-1-yl]methyl}piperazin-1-yl)-N-({3-nitro-4-[(tetrahydro-2H-pyran-4-ylmethyl)amino]phenyl}sulfonyl)-2-(1H-pyrrolo[2,3-b]pyridin-5-yloxy)benzamide], the CL/F [2, 3] is reported as 4.7 L/h, the Cmax/Dose [2, 3] is reported as 0.008 (μg/mL)/mg and the CL/F [2, 4] is reported as 8.6 L/h. The Cmax/Dose [2, 4] was 0.0037 (μg/mL)/mg, the Tmax ([2]; human CLL, Week 1 Day-3 single dose, Subject 1, 200 mg, 50 mg tablets) was 6 h and the CL/F [2, 5] was 2.6 L/h. The Cmax/Dose [2, 5] was 0.0079 (μg/mL)/mg, the CL/F [2, 6] was 2.8 L/h and the Cmax/Dose [2, 6] was 0.0119 (μg/mL)/mg. The CL/F [2, 7] was 7.1 L/h, the Cmax/Dose [2, 7] was 0.0089 (μg/mL)/mg and the Tmax [2, 7] was 8 h. For the same compound, the “time to reach Cmax” value ([2]; human subjects) was “around 7 hours”, the “predicted AUC” value ([2]; human, 200 mg dose, predicted) was 30000 ng·h/mL and the “observed AUC versus predicted AUC” value ([2]; human, normalized to 200 mg dose) was “about 2 fold”. The Cmax [2, 8] was 1190 ng/mL, the AUC(0-inf) [2, 8] was 36300 ng·h/mL and the half-life ([2]; human, plasma, oral, 100 mg, human CLL, Week 1 Day-3 single dose, Subject 3, 100 mg, read-out: t1/2 (converted)) was 22.1 h. It also gave a Cmax ([2]; human, plasma, oral, 150 mg, human CLL, Week 3 Day 1, QD dosing, ID 101, 150 mg) of 1340 ng/mL, an AUC ([2]; human, plasma, oral, 150 mg, read-out: AUC (AUCss,24)) of 21100 ng·h/mL and a Cmax [2, 9] of 730 ng/mL. It also gave an AUC(0-inf) [2, 9] of 23300 ng·h/mL, a half-life ([2]; human, plasma, oral, 200 mg, human CLL, Week 1 Day-3 single dose, Subject 1, 200 mg, read-out: t1/2 (converted)) of 30.6 h and a Cmax [2, 10] of 1570 ng/mL. It also gave an AUC(0-inf) [2, 10] of 76000 ng·h/mL, a half-life ([2]; human, plasma, oral, 200 mg, human CLL, Week 1 Day-3 single dose, Subject 2, 200 mg, read-out: t1/2 (converted)) of 50.9 h and a half-life ([2]; human, plasma, oral, human CLL, Week 1 Day-3 single dose, Harmonic Mean of 3 subjects, read-out: t1/2 (converted)) of 30.7 h. The half-life ([2]; human, plasma, oral, human subjects, observed, read-out: terminal elimination half-life (converted)) was 31 h, the “clearance, predicted value” ([2]; human, predicted) was 10 L/h and the “terminal elimination half-life, predicted value” ([2]; human, predicted) was 15 h. For the same compound, the Tmax ([2]; plasma, oral, human CLL, Week 1 Day-3 single dose, Mean of 3 subjects, read-out: Tmax) was 7.3 h, the clearance ([2]; plasma, oral, human subjects, observed) was 78.3 mL/min and the “adverse event after the first dose” value ([2]; three CLL subjects, first cohort, initial dose 100-200 mg, 50 mg tablet form, all subjects) was “tumor lysis syndrome”.

From patent US11369599B2, “Melt-extruded solid dispersions containing an apoptosis-inducing agent” (AbbVie Inc., priority 2014, dated 2022)
